Counter-ions that a name gives are not always drawn.

A word on the melting point: it is the temperature, or range, at which the solid turns liquid.

With `N#Cc1ccc(NC2CCN(Cc3cccc(C(F)(F)F)c3)CC2)nc1`, the melting point was 111.6 °C.
Take `N#Cc1ccc(NC2CCN(Cc3cc(F)cc(C(F)(F)F)c3)CC2)nc1`: the melting point stood at 198.8 °C.
Regarding `N#Cc1ccc(NC2CCN(Cc3cc(F)cc(F)c3)CC2)nc1`, the melting point turned out to be 102.6 °C.
`N#Cc1ccc(NC2CCN(Cc3cc(F)c(F)c(F)c3)CC2)nc1` returned a melting point of 129.5 °C.
Molecule `N#Cc1cccc(NC2CCN(Cc3cc(F)cc(C(F)(F)F)c3)CC2)n1` yielded a melting point of 115.2 °C.
In turn, `Fc1ccc(CN2CCC(Nc3ccc(C(F)(F)F)cn3)CC2)cc1F` (as salt: hydrochloric acid salt) came in with a melting point of 268.7 °C.

Values taken from patent US20100137368A1, “PYRIDINE DERIVATIVES AS FAST DI[…] 2 RECEPTOR ANTAGONISTS” (JANSSEN PHARMACEUTICA N.V., priority 2007, published 2010).
